Test [1] has as its system CW22Rv1 cells. Kind of test: Cell cycle analysis after irradiation. The class given is cell-based, human. The protocol: Within each group, the left column depicts G1, middle column depicts S and the right column depicts G2. […] All studies shown are 5 days after irradiation and/or 5 days of treatment with TRC105.
(§1) 22Rv1 were pre-treated with 1 μg/ml TRC105 24 hours prior to irradiation with 4 Gy. FIG. 22A) γ-H2AX or p53 bp were imunolocalized at 4, 24, and 48 hours post radiation. Foci per nuclei were quantified (n=100). FIG. 22B) Comet assay was performed 30 minutes and 24 hours following irradiation. The tail moment was quantified (n=50). FIG. 22C) Cell cycle analysis was performed on 22Rv1 at 0, 4, 8, and 24 hours post radiation in the presence of IgG or TRC105 (n=3) in 3 independent experiments. (***p<0.001, ****p<0.0001).

For test [2], the system named is CW22Rv1 cells. The experiment in a line: Seahorse-XF mito-stress test. The class given is cell-based, human. The protocol: Cells were analyzed for mito-stress test by Seahorse-XF 168 hours following 4 Gy of radiation in the presence of IgG or TRC105. FIG. 26A) Basal respiration, non-mito respiration, proton leak, spare respiratory capacity, FIG. 26B) extracellular acidification rate (ECAR) and FIG. 26C) mitochondrial dependent ATP production were quantitated using Wave 2.3.0 analysis. Data are reported as mean+/−S.D. of a representative experiment (n=5) of 3 independent experiments. FIGS. 26A-26C, the first/left column depicts 0Gy+IgG, the second column depicts 0Gy+TRC105, the third column depicts 4Gy+IgG and the last/right column depicts 4Gy+TRC105. FIG. 26D) 22Rv1 cells treated with IgG, TRC105 or nicotinamide were irradiated (4 Gy). Total cellular ATP was measured 0, 24, 72, 120, and 168 hours post radiation. Within each group, the left column is IgG, middle column is TRC105 and the right column is nicotinamide. Data are reported as mean+/−S.D. of 3 independent experiments. (***p<0.001, ****p<0.0001).

Another test deals with C4-2B. The experiment in a line: Clonogenic survival assay with radiation. The class given is cell-based, human. The note with it: 1 μg/ml TRC105 vs IgG, 0 to 6 Gy; p<0.001. The method, then:
(§2) FIG. 18A) Cell surface CD105 expression was measured in PC3, C42b, and 22Rv1 72 hours after 4 Gy irradiation treatment by FACS analysis and compared to cells not irradiated (control). FIG. 18B) Cell surface CD105 expression was measured in cell lines following a dose range of irradiation (0, 2, 4, or 6 Gy). FIG. 18C) The durability of cell surface CD105 expression in 22Rv1 was determined 0, 0.5, 4, 8, 24, 48, 72, 120, and 168 hours following 4 Gy irradiation. CD105 cell surface expression fold change was normalized to levels expressed prior to irradiation. FIG. 18D) Western blot for phosphorylated-Smad1/5 was measured in CW22Rv1 cells in the presence or absence of serum starvation and treatment with 50 ng/ml BMP4 or 1 μg/ml TRC105. β-actin expression served as the loading control. FIG. 18E) Annexin-V expression was measured in 22Rv1 cells by FACS analysis 5 days following 4 Gy irradiation in the presence and absence of TRC105. FIG. 18F) Clonogenic assay was measured 10 days following irradiation of CW22Rv1 and C42b cells in a dose range of 0 to 6 Gy in the presence of 1 μg/ml IgG or TRC105. Data are reported as a mean+/−S.D. (**p<0.01, ***p<0.001).

For the next test, the system named is CW22Rv1. The experiment in a line: Clonogenic survival assay with radiation. The note with it: 1 μg/ml TRC105 vs IgG, 0 to 6 Gy; p<0.001. The class given is cell-based, human. The method, then: as §2
In a further test the test system is 22Rv1. The experiment in a line: γ-H2AX and p53BP foci after irradiation. The class given is cell-based, human. The settings on record: for γ-H2AX and p53BP foci: TRC105 plus 4Gy vs radiation alone. The protocol:
as §1

Test [3] deals with NRF1, MTFA, and CPT1C in 22Rv1 cells. The experiment in a line: mRNA expression of PGC1α target genes. The class given is cell-based, human. The note with it: radiation vs radiation plus TRC105; p<0.001. The protocol:
FIGS. 24A-24D depict that PGC1α and mitochondrial biogenesis are regulated by BMP/CD105. 22Rv1 cells were incubated with IgG or TRC105 with or without 4 Gy irradiation. All measurements were made 72 hours post radiation. FIG. 24A) Western blot for whole cell lysate, nuclear and cytoplasmic fractions were independently analyzed for PGC1α expression. Loading controls included β-actin (whole cell), lamin B (nuclear marker), and Rho A (cytoplasm marker). FIG. 24B) Immunofluorescent localization of PGC1α was visualized with DAPI nuclear counterstain. FIG. 24C) mRNA expression of PGC1α target genes, NRF1, MTFA, and CPT1C was measured. mRNA expression was normalized to GAPDH and untreated IgG 0 Gy. FIG. 24D) Mitochondrial DNA (mtDNA) was measured from total DNA extracts and normalized to nuclear DNA and compared to untreated IgG 0 Gy. Data are reported as means+/−S.D. of 3 independent experiments. (***p<0.001, ****p<0.0001).
Total RNA was extracted using the RNeasy kit (Qiagen). 1 μg RNA was used for cDNA synthesis using iSCRIPT cDNA synthesis kit (1708891, Bio-Rad). Quantitative RT-PCR was performed with 5 replicates using the Step One Real-Time PCR system (Applied Biosystems). […] For RNA-sequencing, Ion Proton AmpliSeq Transcriptome RNA Sequencing was performed achieving an average of 3M reads. We mapped an average of 88% of the reads to the human genome with Torrent Suite version 4.4.2.

In another test the test system is CW22Rv1 xenograft model. The experiment in a line: Subcutaneous CW22Rv1 xenograft with radiation. The class given is in vivo, mice. The protocol:
Tumor volumes were longitudinally measured. When tumor average volume reached […] mice were treated with IgG or TRC105 in the context of radiation (2 Gy for 5 days). Tumors were harvested 15 days after the first dose of radiation. FIG. 28A) Tumor volume fold change was normalized to the first dose of radiation (day 1, ***p<0.001). FIG. 28B) Each treatment was compared for doubling of tumor volume as a function of time as depicted in the cumulative incidence plot.
The inventors assessed CD105 dependent radio-resistance using a CW22Rv1 xenograft model. Mice engrafted with subcutaneous CW22Rv1 were given one dose of IgG or TRC105 72 hours prior to radiation and subsequently 3 times a week for the duration of radiation treatment. The irradiated IgG and irradiated TRC105 groups were given a radiation dosage of 2Gy for 5 consecutive days. Fold change in tumor volume was calculated for each group (FIG. 28A).

As to “TRC105: partially humanized monoclonal antibody that blocks BMP signaling; human-specific CD105 (endoglin) neutralizing antibody from Tracon Pharmaceuticals”, the cell cycle distribution entry with CW22Rv1 cells [1] (4 Gy plus TRC105, 0-24 hours) is “G2 cell cycle arrest that did not resolve by 24 hours”. For the same substance, the “cell cycle, G2-phase” value in the test on CW22Rv1 cells [1] (radiation combined with TRC105, 5 days) is given as “chronic up regulation of the G2-phase”. The “mitochondrial dependent ATP production” value was “depletion of mitochondrial dependent ATP production” with CW22Rv1 cells [2] (TRC105 alone); “further depletion” in the test on CW22Rv1 cells [2] (combination of radiation and TRC105 vs either agent alone). In addition, in the test with CW22Rv1 cells [2] (TRC105 plus 4 Gy vs radiation alone), the spare respiratory capacity result is “further decrease in spare respiratory capacity”. Besides, the basal oxidative phosphorylation entry with CW22Rv1 cells [2] (TRC105 plus 4 Gy vs radiation alone, 168 hours) is “decrease in basal oxidative phosphorylation”. For the same substance, in the test with CW22Rv1 cells [2] (addition of TRC105 in the context of radiation), the “glycolysis (extracellular acidification)” value is recorded as “blocked glycolysis”. Besides, the “radiation sensitivity, clonogenic survival” value with C4-2B and in the test with CW22Rv1 was “sensitized prostate cancer cells to radiation” throughout. For the same substance, the “number of cells with greater than 10 foci per nuclei” value in the test with 22Rv1 (TRC105 alone (radiation alone 59.6%)) came to 4.3%. Also, the “γ-H2AX and p53BP foci” value in the test on 22Rv1 (4 and 24 hours post radiation) was “significant increase in γ-H2AX and p53BP foci”; in the test on 22Rv1 (by 48 hours), “no difference”. For the same substance, the “double stranded DNA breaks” value in the test on 22Rv1 (TRC105 treatment alone vs untreated, within 24 hours, persisted past 72 hours) is “significant increase in double stranded DNA breaks”. For the same substance, in test [3], the “mRNA expression of NRF1, MTFA, and CPT1C” value is “significantly increased with radiation compared to that in the presence of TRC105”. Besides, the tumor volume entry is “did not influence tumor volume” with CW22Rv1 xenograft model (TRC105 alone compared to untreated); “significantly lower than the other three experimental groups” in the test on CW22Rv1 xenograft model (radiation (2Gy for 5 days) and TRC105, p<0.001). Besides, in the test on CW22Rv1 xenograft model (TRC105 with irradiation vs either treatment alone), the tumor doubling time entry is reported as “appreciably inhibited”.

For the origin of these results see US20200239587A1, “SENSITIZATION OF TUMORS TO THERAPIES THROUGH ENDOGLIN ANTAGONISM” (Cedars-Sinai Medical Center, priority 2016, published 2020).
